Where two headings read alike, the source gives them in different places.
Type: in vivo, patients
From the text: The clinical experimentation has been carried out on 18 patients of which 14 females and 4 males, having an average age equal to 62 years selected by the inclusion and exclusion criteria as hereinafter reported. The patients submitted to the clinical experimentation suffered from arthritis deformans diagnosed according to the ARA International Criteria since at least two years, belonging to the 2th and 3rd functional classes according to Steinbrocker. The disease was clinically active notwithstanding the use of drugs known as Disease-Modifying AntiRheumatic Drugs ([…]) able to modify the course of the illness such as for example methotrexate azathioprine, chloroquine, hydroxychloroquine and ciclosporin and notwithstanding the use of steroid and not steroid anti-inflammatory drugs. The patients suffering from arthritis deformans of 4th functional class according to Steinbrocker have been excluded from the experimentation that is the patients invalid with permanent injuries, the patients with associated serious systemic diseases, relevant psychiatric and neuropathic diseases, the drug addicts, the patients suffering from hypersensitivity to the macrolides and the patients under treatment with carbamazepine, ciclosporin and antihistamines. The clarithromycin administration started after the suspension of the Disease-Modifying AntiRheumatic Drugs since one month. In six patients who were assuming a steroid anti-inflammatory drug since at least two weeks, the administration of the same steroid drug with a 6 mg dose of prednisonic equivalent has been associated to the administration of clarithromycin. The administration of clarithromycin was 500 mg twice a day for 8-14 days and subsequently a customized dosage from 500 to 2,000 mg per day in one or two administrations has been applied. The control of the patients has been periodically carried out on 0, 10, 30, 60, 90 and 180 days by medical examination and determination of the haematochemical and functional indexes. In particular the following indexes have been controlled: • HAQ (Health Assessment Questionnaire, 1986), internationally validated as reference functional index in the rheumatic disease; • VAS (Visuanalogic Ache Scale according to Scott Huskisson); • ESR (Erythro Sedimentation Rate).

[1] = Day 180, clarithromycin 500 mg twice a day for 8-14 days, then 500 to 2,000 mg per day, p < 0.05 (Mann-Whitney U test)

`CC[C@H]1OC(=O)[C@H](C)[C@@H](O[C@H]2C[C@@](C)(OC)[C@@H](O)[C@H](C)O2)[C@H](C)[C@@H](O[C@@H]2O[C@H](C)C[C@H](N(C)C)[C@H]2O)[C@](C)(OC)C[C@@H](C)C(=O)[C@H](C)[C@@H](O)[C@]1(C)O` [clarithromycin] showed an ESR (Day 0 (baseline, before clarithromycin), 18 patients, Erythro Sedimentation Rate) of 44.8 ± 8.4, an HAQ (Day 0 (baseline, before clarithromycin), 18 patients, Health Assessment Questionnaire) of 20.2 ± 2.6 and a VAS (Day 0 (baseline, before clarithromycin), 18 patients, Visuanalogic Ache Scale according to Scott Huskisson) of 4.7 ± 0.51. For the same compound, the HAQ (Day 180, clarithromycin 500 mg twice a day for 8-14 days, then 500 to 2,000 mg per day, p < 0.0001 (Mann-Whitney U test)) was 5.5 ± 0.51 (a), the ESR [1] was 27 ± 5.8 (c) and the VAS [1] was 1.32 ± 0.44 (b). For the same compound, the “side effect ascribable to the drug” value (human, in vivo) was “No significant side effect”, the patients not responding (number of patients out of 18) was 4 and the “patients responding to the therapy” value (number of patients out of 18) was 14. For the same compound, the “reduction of the symptomatology” value (starting from the second week of treatment) was “significant reduction of the symptomatology”.
